Reference: patent US7879857B2, “6-substituted 2-quinolinones and 2-quinoxalinones as poly (adp-ribose) polymerase inhibitors” (Janssen Pharmaceutica NV, priority 2003, dated 2011)

Legend:
PARP-1 enzyme [1] = target: T1, PARP-1 enzyme (Homo sapiens, UniProt P09874); assay: In vitro filtration assay for PARP-1 inhibitory activity; assay type: biochemical; conditions: [32P]-NAD as ADP-ribosyl donor, histones, nicked DNA; read-out: In vitro filtration assay pIC50 (converted)
T1 construct: made in house
T1 sequence (P09874 whole entry): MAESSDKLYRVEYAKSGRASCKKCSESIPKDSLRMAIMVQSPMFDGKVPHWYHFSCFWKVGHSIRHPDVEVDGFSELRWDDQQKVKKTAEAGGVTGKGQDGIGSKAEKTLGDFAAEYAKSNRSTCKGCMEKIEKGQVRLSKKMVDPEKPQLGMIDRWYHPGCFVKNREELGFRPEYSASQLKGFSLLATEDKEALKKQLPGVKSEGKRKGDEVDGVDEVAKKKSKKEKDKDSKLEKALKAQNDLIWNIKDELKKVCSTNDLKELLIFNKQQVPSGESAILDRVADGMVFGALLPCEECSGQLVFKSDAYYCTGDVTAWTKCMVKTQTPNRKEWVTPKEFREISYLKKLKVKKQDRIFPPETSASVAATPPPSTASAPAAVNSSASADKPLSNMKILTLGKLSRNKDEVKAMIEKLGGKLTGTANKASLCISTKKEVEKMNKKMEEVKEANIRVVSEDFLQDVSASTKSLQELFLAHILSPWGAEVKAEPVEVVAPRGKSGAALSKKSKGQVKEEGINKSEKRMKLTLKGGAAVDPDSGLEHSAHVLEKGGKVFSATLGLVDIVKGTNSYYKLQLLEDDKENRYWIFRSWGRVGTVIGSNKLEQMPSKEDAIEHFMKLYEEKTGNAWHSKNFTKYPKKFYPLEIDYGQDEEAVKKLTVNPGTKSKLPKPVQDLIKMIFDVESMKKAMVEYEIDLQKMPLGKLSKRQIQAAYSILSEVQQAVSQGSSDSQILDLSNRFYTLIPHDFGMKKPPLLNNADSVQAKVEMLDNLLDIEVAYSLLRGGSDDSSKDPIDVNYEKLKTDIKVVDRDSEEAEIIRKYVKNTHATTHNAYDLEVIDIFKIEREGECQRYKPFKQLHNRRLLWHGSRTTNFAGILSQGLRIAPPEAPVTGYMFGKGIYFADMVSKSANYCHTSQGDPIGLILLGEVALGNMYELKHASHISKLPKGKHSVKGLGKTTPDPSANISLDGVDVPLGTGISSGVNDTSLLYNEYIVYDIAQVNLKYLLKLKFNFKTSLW
Description: In Vitro Filtration Assay for PARP-1 Inhibitory Activity
Compounds of the present invention were tested in an in vitro filtration assay assessing PARP-1 activity (triggered in the presence of nicked DNA) by means of its histone poly (ADP-ribosyl)ation activity using [^32P]-NAD as ADP-ribosyl donor. The radioactive ribosylated histones were precipitated by trichIoroacetic acid (TCA) in 96-well filterplates and the incorporated [^32P] measured using a scintillation counter
A mixture of histones (stock solution: 5 mg/ml in H2O), NAD^+ (stock solution: 100 mM in H2O), and [^32P]-NAD^+ in incubation buffer (50 mM Tris/HCl, pH 8; 0.2 mM DTT; 4 mM MgCl2) was made. A mixture of the PARP-1 enzyme (5-10 μg/ml) and nicked DNA was also made. The nicked DNA was prepared as described in the in vitro SPA for PARP-1 inhibitory activity. Seventy-five μl of the PARP-1 enzyme/DNA mixture together with 1 μl of compound in DMSO and 25 μl of histones-NAD^+/[^32P]-NAD^+ mixture was added per well of a 96-well filterplate (0.45 μm, supplier Millipore). The final concentrations in the incubation mixture were 2 μg/ml for the histones, 0.1 mM for the NAD^+, […] (0.5 μC) for the [^32P]-NAD^+ and 2 μg/ml for the nicked DNA. Plates were incubated for 15 min. at room temperature and the reaction was terminated by the addition of 10 μl ice cold 100% TCA followed by the addition of 10 μl ice-cold BSA solution (1% in H2O). The protein fraction was allowed to precipitate for 10 min. at 4° C. and plates were vacuum filtered. The plates were subsequently washed with, for each well, 1 ml of 10% ice cold TCA, 1 ml of 5% ice cold TCA and 1 ml of 5% TCA at room temperature. Finally 100 μl of scintillation solution (Microscint 40, Packard) was added to each well and the plates were transferred to a TopCountNXT™ (supplier: Packard) for scintillation counting and values were expressed as counts per minute (cpm). For each experiment, controls (containing PARP-1 enzyme and DMSO without compound), a blank incubation (containing DMSO but no PARP-1 enzyme or compound) and samples (containing PARP-1 enzyme and compound dissolved in DMSO) were run in parallel. All compounds tested were dissolved and eventually further diluted in DMSO. […] The control sample represented maximal PARP-1 enzyme activity. For each sample, the amount of cpm was expressed as a percentage of the mean cpm value of the controls. When appropriate, IC50-values (concentration of the drug, needed to reduce the PARP-1 enzyme activity to 50% of the control) were computed using linear interpolation between the experimental points just above and below the 50% level. Herein the effects of test compounds are expressed as pIC50 (the negative log value of the IC50-value). As a reference compound, 4-amino-1,8-naphthalimide was included to validate the filtration assay.

PARP-1 enzyme [2] = target: T1, PARP-1 enzyme; assay: In vitro Scintillation Proximity Assay (SPA) for PARP-1 inhibitory activity; assay type: biochemical; conditions: [3H]-NAD+ as ADP-ribosyl donor, biotinylated histones, nicked DNA; read-out: In vitro SPA pIC50 (converted)
Description: Pharmacological Example In Vitro Scintillation Proximity Assay (SPA) for PARP-1 Inhibitory Activity
Compounds of the present invention were tested in an in vitro assay based on SPA technology (proprietary to Amersham Phannacia Biotech).
In principle, the assay relies upon the well established SPA technology for the detection of poly(ADP-ribosyl)ation of biotinylated target proteins, i.e histones. This ribosylation is induced using nicked DNA activated PARP-1 enzyme and [^3H]-nicotinamide adenine dinucleotide ([^3H]-NAD^+) as ADP-ribosyl donor.
As inducer of PARP-1 enzyme activity, nicked DNA was prepared. For this, 25 mg of DNA (supplier: Sigma) was dissolved in 25 ml DNAse buffer (10 mM Tris-HCI, pH 7.4; 0.5 mg/ml Bovine Serum Albumine (BSA); 5 MM MgCl2.6H2O and 1 mM KCl) to which 50 μl DNAse solution (1 mg/ml in 0.15 M NaCl) was added. After an incubation of 90 min. at 37° C., the reaction was terminated by adding 1.45 g NaCl, followed by a further incubation at 58° C. for 15 min. The reaction mixture was cooled on ice and dialysed at 4° C. for respectively 1.5 and 2 hours against 1.51 of 0.2 M KCl, and twice against 1.51 of 0.01 M KCl for 1.5 and 2 h respectively. The mixture was aliquoted and stored at −20° C. Histones (1 mg/ml, type II-A, supplier: Sigma) were biotinylated using the biotinylation kit of Amersham and stored aliquoted at −20° C. A stock solution of 100 mg/ml SPA poly(vinyl toluene) (PVT) beads (supplier: Amersham) was made in PBS. A stock solution of [^3H]-NAD^+ was made by adding 120 μl of [^3H]-NAD^+ (0.1 mCi/ml, supplier: NEN) to 6 ml incubation buffer (50 mM Tris/HCl, pH 8; 0.2 mM DTT; 4 mM MgCl2). A solution of 4 mM NAD^+ (supplier: Roche) was made in incubation buffer (from a 100 mM stock solution in water stored at −20° C.). The PARP-1 enzyme was produced using art known techniques, i.e. cloning and expression of the protein starting from human liver cDNA. Information concerning the used protein sequence of the PARP-1 enzyme including literature references can be found in the Swiss-Prot database under primary accession number P09874. Biotinylated histones and PVT-SPA beads were mixed and pre-incubated for 30 min. at room temperature. PARP-1 enzyme (concentration was lot dependent) was mixed with the nicked DNA and the mixture was pre-incubated for 30 min. at 4° C. Equal parts of this histones/PVT-SPA beads solution and PARP-1 enzyme/DNA solution were mixed and 75 μl of this mixture together with 1 μl of compound in DMSO and 25 μl of [^3H]-NAD^+ was added per well into a 96-well microtiterplate. The final concentrations in the incubation mixture were 2 μg/ml for the biotinylated histones, 2 mg/ml for the PVT-SPA beads, 2 μg/ml for the nicked DNA and between 5-10 μg/ml for the PARP-1 enzyme. After incubation of the mixture for 15 min. at room temperature, the reaction was terminated by adding 100 μl of 4 mM NAD^+ in incubation buffer (final concentration 2 mM) and plates were mixed.
The beads were allowed to sediment for at least 15 min. and plates transferred to a TopCountNXTT™ (Packard) for scintillation counting, values were expressed as counts per minute (cpm). For each experiment, controls (containing PARP-1 enzyme and DMSO without compound), a blank incubation (containing DMSO but no PARP-1 enzyme or compound) and samples (containing PARP-1 enzyme and compound dissolved in DMSO) were run in parallel. All compounds tested were dissolved and eventually further diluted in DMSO. […] The control sample represented maximal PARP-1 enzyme activity. For each sample, the amount of cpm was expressed as a percentage of the mean cpm value of the controls. When appropriate, IC50-values (concentration of the drug, needed to reduce the PARP-1 enzyme activity to 50% of the control) were computed using linear interpolation between the experimental points just above and below the 50% level. Herein the effects of test compounds are expressed as pIC50(the negative log value of the IC50-value). […]

[3] = rabbits, cited from earlier work
[4] = rats with hapten-induced colitis; cited from earlier work

Compound `Cc1cc2cc(C(CCc3ccccc3)NC=O)ccc2[nH]c1=O` (stereo not shown) [Compound 6] has a melting point of 221.3 °C, an IC50 (PARP-1 enzyme [1]) of 10000 nM and an IC50 (PARP-1 enzyme [2]) of 769 nM.

For `CCc1nc2cc(C(C(C)C)n3ccnc3)ccc2[nH]c1=O` (stereo not shown) [Compound 21, 3-ethyl-6-[1-(1H-imidazol-1-yl)-2-methylpropyl]-2(1H)-quinoxalinone], the IC50 (PARP-1 enzyme [1]) was 1100 nM and the IC50 (PARP-1 enzyme [2]) was 227 nM.

Compound `CCc1nc2cc(C(C(C)C)n3cncn3)ccc2[nH]c1=O` (stereo not shown) [Compound 20, 3-ethyl-6-[2-methyl-1-(1H-1,2,4-triazol-1-yl)propyl]-2(1H)-quinoxalinone] has an IC50 (PARP-1 enzyme [1]) of 2280 nM and an IC50 (PARP-1 enzyme [2]) of 438 nM.

In the case of `Oc1cccc2c(O)nccc12` [1,5-dihydroxyisoquinoline], the “reduction in infarct size” value ([3]; single injection 1 mg/kg) is listed as 38-48%.

`Cc1cc2cc(C(NCCCN3CCCCC3)C(C)C)ccc2[nH]c1=O` (stereo not shown) [Compound 15] showed an IC50 (PARP-1 enzyme [1]) of 3620 nM and an IC50 (PARP-1 enzyme [2]) of 1260 nM.

Work on `Cc1cc2cc(C(C)NC=O)ccc2[nH]c1=O` (stereo not shown) [Compound 18] yielded an IC50 (PARP-1 enzyme [1]) of 6370 nM and an IC50 (PARP-1 enzyme [2]) of 1020 nM.

With `CCc1nc2cc(C(NC=O)C(C)C)ccc2[nH]c1=O` (stereo not shown) [Compound 1] the melting point was 204 °C and the IC50 (PARP-1 enzyme [2]) was 221 nM.

With `CCc1cc2cc(CCNCCCN3CCCCC3)ccc2[nH]c1=O` [Compound 11] the IC50 (PARP-1 enzyme [2]) was 327 nM.

For `NC(=O)c1cccc(N)c1` [3-amino-benzamide], the “effect on inflammatory response, morphology and energetic status of the distal colon” value [4] is listed as “reduced the inflammatory response and restored the morphology and the energetic status of the distal colon” and the “reduction in infarct size in the heart” value ([3]; single injection 10 mg/kg, one minute before occlusion or one minute before reperfusion) is listed as 32-42%.

`CCc1cc2cc(C(O)CN(C)C)ccc2[nH]c1=O` (stereo not shown) [Compound 7] gave a melting point of 131 °C, an IC50 (PARP-1 enzyme [1]) of 773 nM and an IC50 (PARP-1 enzyme [2]) of 212 nM.

`Cc1cc2cc(C(C(C)C)n3ccnc3)ccc2[nH]c1=O` (stereo not shown) [Compound 2] gave a melting point of 211.4 °C, an IC50 (PARP-1 enzyme [1]) of 5350 nM and an IC50 (PARP-1 enzyme [2]) of 522 nM.

Work on `CC(C)C(c1ccc2[nH]c(=O)c(-c3ccsc3)nc2c1)n1cncn1` (stereo not shown) [Compound 23, 6-[2-methyl-1-(1H-1,2,4-triazol-1-yl)propyl]-3-(thienyl)-2(1H)-quinoxalinone] yielded an IC50 (PARP-1 enzyme [1]) of 7130 nM and an IC50 (PARP-1 enzyme [2]) of 1430 nM.

`CC(C)C(c1ccc2[nH]c(=O)c(-c3ccsc3)nc2c1)n1ccnc1` (stereo not shown) [Compound 24, 6-[1-(1H-imidazol-1-yl)-2-methylpropyl]-3-(3-thienyl)-2(1H)-quinoxalinone] gave an IC50 (PARP-1 enzyme [1]) of 4860 nM and an IC50 (PARP-1 enzyme [2]) of 561 nM.

With `CCc1cc2cc(C(O)C(CC)CC)ccc2[nH]c1=O` (stereo not shown) [Compound 5] the IC50 (PARP-1 enzyme [1]) was 638 nM and the IC50 (PARP-1 enzyme [2]) was 156 nM.

In the case of `CCc1nc2cc(C(NCCCN(C)Cc3ccccc3)C(C)C)ccc2[nH]c1=O` (stereo not shown) [Compound 14], the IC50 (PARP-1 enzyme [2]) is reported as 499 nM.

For `CCc1nc2cc(C(O)C(C)C)ccc2[nH]c1=O` (stereo not shown) [Compound 19], the IC50 (PARP-1 enzyme [2]) was 746 nM.

`Cc1cc2cc(C(CCN(C)C)c3ccco3)ccc2[nH]c1=O` (stereo not shown) [Compound 4] showed an IC50 (PARP-1 enzyme [1]) of 7570 nM and an IC50 (PARP-1 enzyme [2]) of 1040 nM.

In the case of `CC(C)C(c1ccc2[nH]c(=O)c(-c3cccs3)nc2c1)n1cncn1` (stereo not shown) [Compound 22, 6-[2-methyl-1-(1H-1,2,4-triazol-1-yl)propyl]-3-(2-thienyl)-2(1H)-quinoxalinone], the IC50 (PARP-1 enzyme [1]) is reported as 4330 nM and the IC50 (PARP-1 enzyme [2]) is reported as 838 nM.

`CCOC(=O)Cc1ccc2[nH]c(=O)c(CC)nc2c1` [Compound 8] gave an IC50 (PARP-1 enzyme [2]) of 975 nM.

`CCCCC(c1ccc2[nH]c(=O)c(C)nc2c1)n1ccnc1` (stereo not shown) [Compound 25, 6-[1-(1H-imidazol-1-yl)pentyl]-3-methyl-2(1H)-quinoxalinone] gave an IC50 (PARP-1 enzyme [1]) of 4630 nM and an IC50 (PARP-1 enzyme [2]) of 1000 nM.

For `CCc1nc2cc(C(NCCCN3CCCCC3)C(C)C)ccc2[nH]c1=O` (stereo not shown) [Compound 13], the IC50 (PARP-1 enzyme [2]) was 368 nM.

Compound `CCc1cc2cc(C(=O)CN(C)C)ccc2[nH]c1=O` [Compound 3] has a melting point of 180 °C, an IC50 (PARP-1 enzyme [1]) of 2590 nM and an IC50 (PARP-1 enzyme [2]) of 259 nM.

For `CCc1cc2cc(C(O)C3CC=CCC3)ccc2[nH]c1=O` (stereo not shown) [Compound 17], the IC50 (PARP-1 enzyme [1]) was 1470 nM and the IC50 (PARP-1 enzyme [2]) was 198 nM.

With `CCc1cc2cc(CCNCCCN(C)Cc3ccccc3)ccc2[nH]c1=O` [Compound 12] the IC50 (PARP-1 enzyme [2]) was 687 nM.

`Cc1cc2cc(C(O)(CCN(C)C)c3ccccn3)ccc2[nH]c1=O` (stereo not shown) [Compound 16] gave an IC50 (PARP-1 enzyme [1]) of 2160 nM and an IC50 (PARP-1 enzyme [2]) of 470 nM.

With `CCc1nc2cc(C(NCCN3CCC(C(=O)c4ccc(F)cc4)CC3)C(C)C)ccc2[nH]c1=O` (stereo not shown) [Compound 10] the IC50 (PARP-1 enzyme [2]) was 740 nM.

`CCc1nc2cc(C(=O)C(C)C)ccc2[nH]c1=O` [Compound 9] showed an IC50 (PARP-1 enzyme [2]) of 743 nM.
